Converted amounts (≈) assume the structure as drawn. “Also recorded” adds a separate entry of the source. Like-named read-outs stand apart in the source and are kept apart here.
Legend:
in vitro = test: in vitro
Source text: The synthesised derivatives were screened for their abilities to cross the BBB using the parallel artificial membrane permeability assay (PAMPA) because this ability is a critical developmental requirement for any drug targeting neurodegenerative disorders or depression.

recombinant human MAO-A = target: T1, recombinant human MAO-A (Homo sapiens, UniProt P21397); test: MAO-A inhibition assay (kynuramine substrate); format: biochemical; settings: for remaining activity at 10 µM: read-out: Residual activities (%) MAO-A (10 µM)
T1 sequence (P21397 1-527): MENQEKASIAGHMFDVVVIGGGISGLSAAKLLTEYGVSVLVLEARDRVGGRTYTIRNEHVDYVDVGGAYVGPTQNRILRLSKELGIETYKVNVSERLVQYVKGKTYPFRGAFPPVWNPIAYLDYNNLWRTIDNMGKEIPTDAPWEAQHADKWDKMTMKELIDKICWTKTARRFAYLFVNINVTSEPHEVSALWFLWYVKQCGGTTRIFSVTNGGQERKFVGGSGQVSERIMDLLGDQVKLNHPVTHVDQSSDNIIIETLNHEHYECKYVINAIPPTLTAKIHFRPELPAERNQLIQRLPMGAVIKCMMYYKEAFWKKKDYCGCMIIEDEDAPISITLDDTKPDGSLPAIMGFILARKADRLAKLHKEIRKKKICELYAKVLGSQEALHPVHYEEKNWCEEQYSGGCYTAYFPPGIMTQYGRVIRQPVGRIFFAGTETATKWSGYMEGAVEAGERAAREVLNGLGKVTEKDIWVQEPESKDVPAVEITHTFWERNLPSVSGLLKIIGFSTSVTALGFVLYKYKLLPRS
Protocol: (§1) MAO-A, MAO-B, AChE and BChE activities were measured after exposure to inhibitors at a concentration of 10 µM. […] IC50 values were determined by measuring the residual enzyme activities. […] Ki values and inhibitor types were determined by kinetic testing, as previously described. […] Lineweaver–Burk plots and their secondary plots were used to determine Ki values and inhibitor types.

AChE [1] = target: T2, AChE (Electrophorus electricus, UniProt O42275); test: AChE inhibition assay (modified Ellman method, ATCI); format: biochemical; settings: 15 min pre-incubation, mean ± SE
T2 sequence (O42275 24-633): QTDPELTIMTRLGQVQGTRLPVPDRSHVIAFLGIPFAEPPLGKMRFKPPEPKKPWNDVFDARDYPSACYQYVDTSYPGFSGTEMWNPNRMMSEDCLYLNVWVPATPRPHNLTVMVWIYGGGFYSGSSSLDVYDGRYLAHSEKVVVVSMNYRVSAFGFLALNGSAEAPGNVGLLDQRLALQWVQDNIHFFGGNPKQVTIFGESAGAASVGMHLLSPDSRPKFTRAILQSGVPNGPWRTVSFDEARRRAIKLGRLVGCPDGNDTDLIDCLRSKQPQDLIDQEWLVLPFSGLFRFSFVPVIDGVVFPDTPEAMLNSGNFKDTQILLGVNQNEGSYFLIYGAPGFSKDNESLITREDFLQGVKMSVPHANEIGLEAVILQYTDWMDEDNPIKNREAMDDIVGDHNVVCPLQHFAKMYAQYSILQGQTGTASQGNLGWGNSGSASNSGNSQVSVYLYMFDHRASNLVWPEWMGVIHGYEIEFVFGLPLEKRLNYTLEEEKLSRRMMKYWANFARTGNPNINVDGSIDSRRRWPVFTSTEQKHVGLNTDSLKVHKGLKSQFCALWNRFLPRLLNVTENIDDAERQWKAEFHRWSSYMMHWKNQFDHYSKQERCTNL

BChE = BChE (Equus caballus, UniProt P81908); test: biochemical; settings: for remaining activity at 10 µM: read-out: Residual activities (%) BChE (10 µM)
Chain of BChE (P81908 whole entry): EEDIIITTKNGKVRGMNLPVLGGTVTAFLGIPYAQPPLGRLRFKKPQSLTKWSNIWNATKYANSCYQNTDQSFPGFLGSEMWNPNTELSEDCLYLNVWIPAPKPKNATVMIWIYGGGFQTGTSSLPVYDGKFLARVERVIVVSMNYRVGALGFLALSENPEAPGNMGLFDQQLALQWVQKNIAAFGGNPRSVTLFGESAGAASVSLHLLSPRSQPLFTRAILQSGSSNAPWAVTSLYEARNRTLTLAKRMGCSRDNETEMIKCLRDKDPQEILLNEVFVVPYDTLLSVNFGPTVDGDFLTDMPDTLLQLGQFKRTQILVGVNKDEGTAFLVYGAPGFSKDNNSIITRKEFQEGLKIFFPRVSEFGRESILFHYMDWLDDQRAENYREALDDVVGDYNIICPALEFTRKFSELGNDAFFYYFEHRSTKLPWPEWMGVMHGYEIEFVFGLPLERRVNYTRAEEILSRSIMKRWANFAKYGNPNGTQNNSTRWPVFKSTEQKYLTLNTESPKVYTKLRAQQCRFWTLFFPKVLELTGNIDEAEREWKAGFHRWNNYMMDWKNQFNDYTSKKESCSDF
Protocol: Colour development was performed using 0.5 mM 5,5′-dithiobis (2-nitrobenzoic acid) (DTNB), which reacts with thiocholine (a product of ATCI by AChE or of BTCI by BChE) to produce 5-thio 2-nitrobenzoic acid.
as §1

AChE [2] = target: T2, AChE; test: Kinetics of AChE inhibition (Lineweaver-Burk and secondary plots); format: biochemical
Protocol: as §1

AChE [3] = target: T2, AChE; test: Reversibility of AChE inhibition by dialysis; format: biochemical; settings: for Reversibility of AChE inhibition: dialysis; for AChE residual activity, dialysed (AD) / AChE residual activity, undialyzed (AU): inhibitor ~2 × IC50; for AChE residual activity, dialysed (AD): after 6 h dialysis; for AChE residual activity, undialyzed (AU): before dialysis
Hela cells = test: Total ROS assay in H2O2-treated cells; format: cell-based, human; settings: for ROS levels in H2O2-treated Hela cells: 40 µg/mL compound, 100 μg/mL H2O2, fluorescent image analysis
Source text: ROS are considered to be the radicals primarily responsible for the neuronal death observed in various neurodegenerative disorders.
Figure 7.

normal VERO cells = test: MTT cytotoxicity assay; settings: for IC50: Chlorocebus sabaeus, Vero, read-out: IC50 in normal VERO cells
MAO-B [4] = target: T3, MAO-B (Homo sapiens, UniProt P27338); test: MAO-B inhibition assay (benzylamine substrate); format: biochemical; settings: for remaining activity at 1 µM: read-out: Residual activities (%) MAO-B (1.0 µM); for SI = IC50 of MAO-A/IC50 of MAO-B: selectivity for MAO-B over MAO-A
T3 sequence (P27338 1-520): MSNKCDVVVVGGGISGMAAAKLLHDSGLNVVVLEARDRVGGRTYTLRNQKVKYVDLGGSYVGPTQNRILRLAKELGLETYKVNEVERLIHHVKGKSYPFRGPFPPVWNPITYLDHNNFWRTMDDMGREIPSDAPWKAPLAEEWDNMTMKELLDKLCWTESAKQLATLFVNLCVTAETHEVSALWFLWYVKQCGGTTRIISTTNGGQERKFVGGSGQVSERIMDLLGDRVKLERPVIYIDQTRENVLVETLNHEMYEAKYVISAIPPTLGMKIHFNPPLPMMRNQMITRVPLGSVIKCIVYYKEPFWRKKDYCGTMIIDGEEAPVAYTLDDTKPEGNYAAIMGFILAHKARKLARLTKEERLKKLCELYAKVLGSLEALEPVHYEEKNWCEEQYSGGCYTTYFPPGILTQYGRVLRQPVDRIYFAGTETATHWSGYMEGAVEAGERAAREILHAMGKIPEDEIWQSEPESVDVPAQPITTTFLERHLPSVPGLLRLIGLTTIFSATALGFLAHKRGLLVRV

[5] = PAMPA-BBB reported values; cited from earlier work
MAO-B [6] = target: T3, MAO-B; test: Reversibility of MAO-B inhibition by dialysis; format: biochemical; settings: for MAO-B residual activity, dialysed (AD): after 6 h dialysis
Protocol: Figure 6. […] For recovery experiments, preincubated enzyme mixtures were dialysed as described in the text.
Inhibition types (reversible or irreversible) were determined by dialysis, as previously described^51,52, but by using 0.06 mM kynuramine and 0.3 mM benzylamine. For the experiment of AChE, 0.5 mM ATCI was used. […] Residual activities were calculated using the measured activities of undialyzed (AU) and dialysed (AD) solutions and the activities of untreated controls (i.e. without inhibitor).

MAO-B [7] = target: T3, MAO-B; test: Kinetics of MAO-B inhibition (Lineweaver-Burk and secondary plots); format: biochemical
Protocol: as §1

Structure (SMILES) | Papp (in vitro; PAMPA) [×10⁻⁶ cm/s] | Prediction (BBB permeation class) (in vitro; PAMPA-BBB, class from Pe) | remaining activity at 10 µM (recombinant human MAO-A; inhibitor 10 µM, mean ± SE) [%] | IC50 (recombinant human MAO-A; mean ± SE) [µM] | IC50 (MAO-B [4]) [µM] | remaining activity at 1 µM (MAO-B [4]) [%] | SI = IC50 of MAO-A/IC50 of MAO-B (MAO-B [4]) | remaining activity at 10 µM (BChE) [%] | further results
CCn1cc(C(=O)O)c(=O)c2cc(F)c(N3CCNC(C)C3)c(F)c21 (stereo not shown) [Lomefloxacin, reference compound] | 1.26 ± 0.01 | CNS- (CNS- (low): Pe (10^−6 cm s^−1) <2.00) |  |  |  |  |  |  | 
CN(C)c1ccc(/C=C/C(=O)c2ccc(N3CCOCC3)cc2)cc1 [MO5] | 14.4 ± 0.81 | CNS+ (CNS+ (high): Pe (10^−6 cm s^−1) > 4.00) |  |  |  |  |  |  | Residual activities (%) MAO-A (10 µM) (recombinant human MAO-A; inhibitor 10 µM, mean ± SE): 88.1 ± 3.43%; IC50 (AChE [1]): 6.1 ± 0.0048 µM; Residual activities (%) AChE (10 µM) (AChE [1]; inhibitor 10 µM): 34.5 ± 9.51%; Residual activities (%) BChE (10 µM) (BChE; inhibitor 10 µM, mean ± SE): 60.86 ± 1.07%; Type of AChE inhibition (AChE [2]): reversibly competitively inhibited; Reversibility of AChE inhibition (AChE [3]): reversible inhibitors; AChE residual activity, dialysed (AD) (AChE [3]): 79.2%; AChE residual activity, undialyzed (AU) (AChE [3]): 35.8%; BBB permeation (in vitro; PAMPA-BBB): crossed the blood–brain barrier; ROS levels in H2O2-treated Hela cells (Hela cells): significantly lower ROS levels than MO9; IC50 in normal VERO cells (normal VERO cells; MTT assay): 185.44 µg/mL (≈ 551 µM); Toxicity to normal VERO cells (normal VERO cells; MTT assay): non-toxic
Cc1ccc(/C=C/C(=O)c2ccc(N3CCOCC3)cc2)cc1 [MO4] |  |  | 70.2 ± 1.24 | 25.8 ± 1.58 | 0.33 ± 0.03 | 49 ± 1.45 | 78.2 | 80.3 ± 6.43 | 
O=C(/C=C/c1ccc(Cl)cc1)c1ccc(N2CCOCC2)cc1 [MO8] |  |  | 83.7 ± 4.02 | > 40 | 0.32 ± 0.16 | 34.6 ± 5.44 | >125.0 | 74.61 ± 0.73 | 
CN1C(C(=O)Nc2ccccn2)=C(O)c2ccccc2S1(=O)=O [Piroxicam, reference compound] | 2.35 ± 0.3 | CNS+/- |  |  |  |  |  |  | Bibliography Pe (×10^−6 cm s^−1) [5]: 2.5 ×10^−6 cm s^−1
O=C(/C=C/c1ccc(Br)cc1)c1ccc(N2CCOCC2)cc1 [MO9] | 14.61 ± 0.08 | CNS+ (CNS+ (high): Pe (10^−6 cm s^−1) > 4.00) | 79.8 ± 1.54 | > 40 | 0.36 ± 0.16 | 51.3 ± 2.42 | >111.1 | 70.2 ± 5.5 | Type of AChE inhibition (AChE [2]): reversibly noncompetitively inhibited; also recorded: non-competitively; Reversibility of AChE inhibition (AChE [3]): reversible inhibitors; AChE residual activity, dialysed (AD) (AChE [3]): 80.7%; AChE residual activity, undialyzed (AU) (AChE [3]): 33.8%; BBB permeation (in vitro; PAMPA-BBB): crossed the blood–brain barrier; IC50 (normal VERO cells): 188 µg/mL (≈ 506 µM); Toxicity to normal VERO cells (normal VERO cells; MTT assay): non-toxic
NCCNC(=O)c1ccc(Cl)cn1 [Lazabemide, reference compound] |  |  |  |  |  |  |  |  | MAO-B residual activity, dialysed (AD) (MAO-B [6]; inhibitor ~2 × IC50): 90.0%; MAO-B residual activity, undialyzed (AU) (MAO-B [6]; inhibitor ~2 × IC50, before dialysis): 38.8%
CCc1ccc(/C=C/C(=O)c2ccc(N3CCOCC3)cc2)cc1 [MO6] |  |  | 12.3 ± 1.58 | 8.7 ± 1.32 | 0.64 ± 0.04 | 64.1 ± 1.37 | 13.6 | 70.96 ± 0.36 | 
NCCc1ccc(O)c(O)c1 [Dopamine, reference compound] |  |  |  |  |  |  |  |  | Prediction (BBB permeation class) (in vitro; PAMPA): CNS- (key: CNS+ (high): Pe (10^−6 cm s^−1) > 4.00; CNS- (low): Pe (10^−6 cm s^−1) <2.00; CNS± (uncertain): Pe (10^−6 cm s^−1) from 4.00 to 2.00); Bibliography Pe (×10^−6 cm s^−1) [5]: 0.2 ×10^−6 cm s^−1
O=C(/C=C/c1ccc(O)cc1)c1ccc(N2CCOCC2)cc1 [MO2] |  |  | 93.8 ± 1.34 | > 40 | 0.7 ± 0.23 | 54.5 ± 5.28 | > 57.1 | 63.5 ± 3.3 | 
O=C(/C=C/c1ccc([N+](=O)[O-])cc1)c1ccc(N2CCOCC2)cc1 [MO7] |  |  |  | 7.1 ± 0.41 | 0.25 ± 0.05 | 26.1 ± 5.44 | 28.4 | 70.2 ± 4.76 | 
COc1ccc(/C=C/C(=O)c2ccc(N3CCOCC3)cc2)cc1 [MO3] |  |  | 91 ± 3.17 | > 40 | 1.01 ± 0.08 | 79.9 ± 5.28 | >39.6 | 56.8 ± 2.97 | 
O=C(/C=C/c1ccccc1)c1ccc(N2CCOCC2)cc1 [MO1] | 16.34 ± 0.16 | CNS+ (CNS+ (high): Pe (10^−6 cm s^−1) > 4.00) |  |  |  | 38.1 ± 9.5 |  | 62.9 ± 2.97 | remaining activity at 10 µM (recombinant human MAO-A): 94.2 ± 0.62%; IC50 (MAO-B [4]; read-out: IC50 (µM) MAO-B, mean ± SE): 0.03 ± 0.062 µM; IC50 (AChE [1]): 16.1 ± 2.24 µM; Type of MAO-B inhibition (MAO-B [7]): reversible mixed-type inhibitor; Reversibility of MAO-B inhibition (MAO-B [6]; dialysis): reversible inhibitor; MAO-B residual activity, dialysed (AD) (MAO-B [6]; inhibitor ~2 × IC50): 77.1%; BBB permeation (in vitro; PAMPA-BBB): crossed the blood–brain barrier; ROS levels in H2O2-treated Hela cells (Hela cells): significantly lower ROS levels than MO9; Colony formation induced by H2O2 (Hela cells; Hela cells): markedly reduced; IC50 (normal VERO cells): 195 µg/mL (≈ 665 µM); Toxicity to normal VERO cells (normal VERO cells; MTT assay): non-toxic

— PMC7808749, “Morpholine-based chalcones as dual-acting monoamine oxidase-B and acetylcholinesterase inhibitors: synthesis and biochemical investigations” (Journal of Enzyme Inhibition and Medicinal Chemistry, 2021)
